The values that follow come from patent publication US20040029905A1, “Use of weak opioids and mixed opioid agonists/antagonists for treatment of urinary incontinence” (Gruenenthal GmbH, priority 2000, published 2004).

In the test the test system is anaesthetized naïve female rats. The test can be described thus: Cystometry on anaesthetized naïve rats (suppression of rhythmic spontaneous bladder contractions). Format: in vivo, rat. The settings on record: i.v., cumulative administration; mean of the lowest dose of 3 independent experiments at which contractions are first absent over a period of 10 min. How it is done: The cystometric investigation of naïve female rats was carried out by the method of Kimura et al. (Kimura et al., 1996, Int. J. Urol. 3:218-227). The abdomen of anaesthetized ventilated rats is opened up and the ureter is tied off. The urine is drained from the kidneys. A catheter is inserted into the bladder and fixed. […] After stable starting values are reached, the test substance is administered i.v. in a cumulative manner. An influence on bladder function manifests itself via suppression of spontaneous contractions. The absence of contractions over a period of 10 min is used as an indication of suppression.
A suppression of spontaneous contractions in the rats was measurable with all the substances tested. Table II indicates the mean of the lowest dose of 3 independent experiments at which for the first time contractions are absent over a period of 10 min.

Consider `CCC1(c2cccc(O)c2)CCCCN(C)C1` (stereo not drawn) [Meptazinol, 3-(3-ethylhexahydro-1-methyl-1H-azepin-3-yl)phenol], for which the “Lowest dose effective for suppression of contraction” value (“Lowest dose effective” below) is given as 1.0 (n = 3) mg/kg.

Consider `CCOC(=O)[C@]1(c2ccccc2)CCC=C[C@H]1N(C)C` (relative stereo) [Tilidine, trans-2-(dimethylamino)-1-phenyl-3-cyclohexene-1-carboxylic acid ethyl ester], for which the “Lowest dose effective” value is listed as 0.5 (n = 3) mg/kg.

On to `COc1ccc2c3c1O[C@H]1[C@@H](O)C=C[C@H]4[C@@H](C2)N(C)CC[C@@]341` [Codeine (phosphate), (5a,6a)-7,8-didehydro-4,5-epoxy-3-methoxy-17-methylmorphinan-6-ol], for which the “Lowest dose effective” value was 4.7 (n = 3) mg/kg.
